Legend:
[1] = system: Staphylococcus aureus; assay: TLC bioautography antibacterial assay, S. aureus; type: cell-based; conditions: qualitative
Procedure: (§1) The crude (1st methanolic) extract of M. latifolia bark and five chromatographic fractions obtained using the purification process outlined in Example 1 were submitted for TLC bioautography studies for qualitative determination of antibacterial activity.
(§2) Briefly, a reference plate was prepared by loading the samples on a silica gel TLC plate which was developed using an established solvent system (10% ethyl acetate in petroleum ether) to separate their components based on polarity. The developed plates were then visualised using 5% v/v sulfuric acid in methanol+0.1% w/v vanillin in ethanol, followed by heat. Using this method, Balaenone was distinguished as a bright pink to red spot (see FIG. 7).
(§3) Multiple copies of this plate were then prepared and developed using the same solvent system, but instead are visualised by pouring agar inoculated/spiked with one of the following micro-organisms (see below) and allowed to incubate before visualisation with a reduction dye.

[2] = system: Staphylococcus epidermidis; assay: TLC bioautography antibacterial assay, S. epidermidis; type: cell-based; conditions: qualitative
Procedure: as §1, §2, §3

[3] = Storage stability of Balaenone; type: physicochemical; conditions: away from light and oxygen
Description: Final purification of trans-Balaenone on silica gel separated it from an oxygenated aromatic compound, subsequently identified as halifordin (8). Without being bound by theory, it is believed that degradation is due to the presence of halifordin (8), which is also present in the methanol extract of M. latifolia.
In a separate experiment, purified trans-Balaenone was photochemically reacted with atmospheric oxygen in the presence of Rose Bengal (another known photogenerator of singlet oxygen), which generated 7b among other oxidation products.
Removal of halifordin (8) from the extract provides a purified composition of trans-Balaenone in which trans-Balaenone is stable at room temperature, when stored away from light and oxygen. It is believed that the same process would occur with respect to cis-Balaenone.

Compound	antibacterial activity (zones of inhibition) [1]	antibacterial activity (zones of inhibition) [2]	stability on storage ([3]; cool temperatures)	stability on storage ([3]; room temperature, in the absence of halifordin (8))
CC1=C2c3c(C)coc3CCC(C)C2CC1=O (stereo not shown) [Balaenone]	zones of inhibition	zones of inhibition	–	–
CC1=C2c3c(C)coc3CC[C@H](C)[C@H]2CC1=O [trans-Balaenone, (6S,6aR)-1,6,9-trimethyl-5,6,6a,7-tetrahydroazuleno[5,4-b]furan-8(4H)-one]	–	–	quite stable	essentially stable

Reference: US12065420B2, “Uses of balaenone and method of extraction thereof” (HARDIE HEALTH LIMITED, priority 2018, dated 2024)
